Laboratory results taken from US20240132478A1, “COCRYSTAL” (Syndesi Therapeutics SA, priority 2020, published 2024).
“Also recorded” adds a separate entry of the source. Read-outs that look alike come from different tables or passages of the source.

Experiments:
Assay type in all cases: physicochemical
[1] = Gravimetric Vapour Sorption (GVS) moisture sorption isotherm
Experimental: Sorption isotherms were obtained using a SMS DVS Intrinsic moisture sorption analyser, controlled by DVS Intrinsic Control software. The sample temperature was maintained at 25° C. by the instrument controls. The humidity was controlled by mixing streams of dry and wet nitrogen, with a total flow rate of 200 ml/min. The relative humidity was measured by a calibrated Rotronic probe (dynamic range of 1.0-100% RH), located near the sample. The weight change, (mass relaxation) of the sample as a function of % RH was constantly monitored by a microbalance (accuracy ±0.005 mg). Typically, 5-30 mg of sample was placed in a tared mesh stainless steel basket under ambient conditions. The sample was loaded and unloaded at 40% RH and 25° C. (typical room conditions). A moisture sorption isotherm was performed as outlined below (2 scans per complete cycle). The standard isotherm was performed at 25° C. at 10% RH intervals over a 0-90% RH range. Typically, a double cycle (4 scans) was carried out. Data analysis was carried out within Microsoft Excel using the DVS Analysis Suite.
The sample was recovered after completion of the isotherm and re-analysed by XRPD.

[2] = Storage stability at elevated temperature and humidity (XRPD and HPLC purity after storage)
Experimental: Bruker AXS D8 Advance: XRPD diffractograms were collected on a Bruker D8 diffractometer using Cu Kα radiation (40 kV, 40 mA) and a θ-2θ goniometer fitted with a Ge monochromator. The incident beam passes through a 2.0 mm divergence slit followed by a 0.2 mm anti-scatter slit and knife edge. The diffracted beam passes through an 8.0 mm receiving slit with 2.5° Soller slits followed by the Lynxeye Detector. The software used for data collection and analysis was Diffrac Plus XRD Commander and Diffrac Plus EVA respectively. Samples were run under ambient conditions as flat plate specimens using powder as received. The sample was prepared on a polished, zero-background (510) silicon wafer by gently pressing onto the flat surface or packed into a cut cavity. The sample was rotated in its own plane. The details of the data collection method are: • Angular range: 2 to 42° 2θ • Step size: 0.05° 2θ • Collection time: 0.5 s/step (total collection time: 6.40 min)
Purity analysis was performed on an Agilent Ip 100/Infinity 111260 series system equipped with a diode array detector and using OpenLAB software. The full method details are provided below:
The three potential cocrystals were characterised using DSC, 1H NMR, TGA and by evaluating their stability with XRPD after 7 or 8 days of being stored at 40° C./75% RH. All three cocrystals were unchanged by XRPD after storage at 40° C./75% RH and none had significant amounts of solvent present (Table 28). The 4 HBA cocrystal appeared to have a similar melt to the starting material (ca. 85° C.). […] All initially appeared to have a 1:1 stoichiometry. […]

[3] = Solubility assessment in solvents (visual); details: for solubility: read-out: Observations from solubility assessment
Experimental: API (25 mg) was dispensed to a PLC vial with a magnetic stirrer. At room temperature an aliquot of solvent was added (5 vol.=125 μL) and stirred at 25° C. for at least 5 minutes. A visual assessment was made. Solutions were held at 25° C. and suspensions were placed at 50° C. with stirring for at least 5 minutes. A visual assessment was made and if a suspension was observed, further aliquots of solvent were added at 25° C. and the above steps repeated until a maximum of 50 volumes were added (Table 7).

[4] = Differential Scanning Calorimetry (DSC); details: * = multiple thermal events
Experimental: TA Instruments Q2000: DSC data were collected on a TA Instruments Q2000 equipped with a 50 position auto sampler. Typically, 0.5 3 mg of each sample, in a pin-holed aluminium pan, was heated at 10° C./min from 25° C. to 235° C. A purge of dry nitrogen at 50 mlmL/min was maintained over the sample. The instrument control software was Advantage for Q Series and Thermal Advantage and the data were analysed using Universal Analysis or TRIOS.
TA Instruments Discovery DSC: DSC data were also collected on a TA Instruments Discovery DSC equipped with a 50 position auto-sampler. Typically, 0.5 3 mg of each sample, in a pin-holed aluminium pan, was heated at 10° C./min from 25° C. to 235° C. A purge of dry nitrogen at 50 mlmL/min was maintained over the sample. The instrument control software was TRIOS and the data were analysed using TRIOS or Universal Analysis.

[5] = Storage stability at elevated temperature and humidity (XRPD and HPLC purity after storage); remark: listed apart in the source

## O=C1C[C@H](c2cc(F)c(F)c(F)c2)CN1Cn1ncnc1Cl [API, (4R)-1-[(5-chloro-1H-1,2,4-triazol-1-yl)methyl]-4-(3,4,5-trifluorophenyl)pyrrolidin-2-one]
[1]; in words, by GVS
  Hygroscopicity: not hygroscopic
[1]; sample re-analysed by XRPD after isotherm
  XRPD post-GVS: no form change observed; also recorded: Unchanged by XRPD post-GVS
[2]; 40° C./75% RH
  XRPD after storage: Unchanged
[2]; XRPD after storage
  Stability at 25° C./97% RH and 40° C./75% RH: Stable,
[3]; 1,4-dioxane, 25 °C, organic solvent or mixture, thermodynamic from solid, 1,4-Dioxane, 5 vol, 25° C.
  solubility: > 200 mg/mL
[3]; 2-methyl-1-propanol, 25 °C, organic solvent or mixture, thermodynamic from solid, 2-methyl-1-propanol, 5 vol, 25° C.
  solubility: < 200 mg/mL
[3]; 2-methyl-1-propanol, 50 °C, organic solvent or mixture, thermodynamic from solid, 2-methyl-1-propanol, 5 vol, 50° C.
  solubility: > 200 mg/mL
[3]; 2-propanol, 25 °C, organic solvent or mixture, thermodynamic from solid, 2-Propanol, 5 vol, 25° C.
  solubility: < 200 mg/mL
[3]; 2-propanol, 50 °C, organic solvent or mixture, thermodynamic from solid, 2-Propanol, 5 vol, 50° C.
  solubility: > 200 mg/mL
[3]; IPA:water (9:1 v/v), 25 °C, organic solvent or mixture, thermodynamic from solid, IPA:Water (9:1 v/v), 5 vol, 25° C.
  solubility: < 200 mg/mL
[3]; IPA:water (9:1 v/v), 50 °C, organic solvent or mixture, thermodynamic from solid, IPA:Water (9:1 v/v), 5 vol, 50° C.
  solubility: > 200 mg/mL
[3]; IPAC, 25 °C, organic solvent or mixture, thermodynamic from solid, IPAC, 5 vol, 25° C.
  solubility: > 200 mg/mL
[3]; MEK, 25 °C, organic solvent or mixture, thermodynamic from solid, MEK, 5 vol, 25° C.
  solubility: > 200 mg/mL
[3]; MIBK, 25 °C, organic solvent or mixture, thermodynamic from solid, MIBK, 5 vol, 25° C.
  solubility: > 200 mg/mL
[3]; TBME, 25 °C, organic solvent or mixture, thermodynamic from solid, TBME, 5 vol, 25° C.
  solubility: < 200 mg/mL
[3]; TBME, 25 °C, organic solvent or mixture, thermodynamic from solid, TBME, 10 vol, 25° C.
  solubility: < 100 mg/mL
[3]; TBME, 50 °C, organic solvent or mixture, thermodynamic from solid, TBME, 5 vol, 50° C.
  solubility: < 200 mg/mL
[3]; TBME, 50 °C, organic solvent or mixture, thermodynamic from solid, TBME, 10 vol, 50° C.
  solubility: > 100 mg/mL
[3]; acetone, 25 °C, organic solvent or mixture, thermodynamic from solid, Acetone, 5 vol, 25° C.
  solubility: > 200 mg/mL
[3]; acetone:water (95:5 v/v), 25 °C, organic solvent or mixture, thermodynamic from solid, Acetone:water (95:5 v/v), 5 vol, 25° C.
  solubility: < 200 mg/mL
[3]; acetone:water (95:5 v/v), 50 °C, organic solvent or mixture, thermodynamic from solid, Acetone:water (95:5 v/v), 5 vol, 50° C.
  solubility: > 200 mg/mL
[3]; acetonitrile, 25 °C, organic solvent or mixture, thermodynamic from solid, Acetonitrile, 5 vol, 25° C.
  solubility: > 200 mg/mL
[3]; diethyl ether, 25 °C, organic solvent or mixture, thermodynamic from solid, Diethyl ether, 5 vol, 25° C.
  solubility: < 200 mg/mL
[3]; diethyl ether, 25 °C, organic solvent or mixture, thermodynamic from solid, Diethyl ether, 10 vol, 25° C.
  solubility: < 100 mg/mL
[3]; diethyl ether, 25 °C, organic solvent or mixture, thermodynamic from solid, Diethyl ether, 50 vol, 25° C.
  solubility: > 20 mg/mL
[3]; ethanol, 25 °C, organic solvent or mixture, thermodynamic from solid, Ethanol, 5 vol, 25° C.
  solubility: < 200 mg/mL
[3]; ethanol, 50 °C, organic solvent or mixture, thermodynamic from solid, Ethanol, 5 vol, 50° C.
  solubility: > 200 mg/mL
[3]; ethanol:water (9:1 v/v), 25 °C, organic solvent or mixture, thermodynamic from solid, Ethanol:Water (9:1 v/v), 5 vol, 25° C.
  solubility: > 200 mg/mL
[3]; ethyl acetate, 25 °C, organic solvent or mixture, thermodynamic from solid, Ethyl acetate, 5 vol, 25° C.
  solubility: > 200 mg/mL
[3]; most of the organic solvents tested, water, diethyl ether and n-heptane are the exceptions
  Solubility in organic solvents: good solubility
[3]; n-heptane, 25 °C, organic solvent or mixture, thermodynamic from solid, n-heptane, 5 vol, 25° C.
  solubility: < 200 mg/mL
[3]; n-heptane, 50 °C, organic solvent or mixture, thermodynamic from solid, n-heptane, 5 vol, 50° C.
  solubility: < 200 mg/mL
[3]; n-heptane, 50 °C, organic solvent or mixture, thermodynamic from solid, n-heptane, 50 vol, 50° C.
  solubility: < 20 mg/mL
[3]; nitromethane, 25 °C, organic solvent or mixture, thermodynamic from solid, Nitromethane, 5 vol, 25° C.
  solubility: > 200 mg/mL
[3]; tetrahydrofuran, 25 °C, organic solvent or mixture, thermodynamic from solid, Tetrahydrofuran, 5 vol, 25° C.
  solubility: > 200 mg/mL
[3]; toluene, 25 °C, organic solvent or mixture, thermodynamic from solid, Toluene, 5 vol, 25° C.
  solubility: < 200 mg/mL
[3]; toluene, 50 °C, organic solvent or mixture, thermodynamic from solid, Toluene, 5 vol, 50° C.
  solubility: > 200 mg/mL
[3]; water, 25 °C, water, thermodynamic from solid, Water, 5 vol, 25° C.
  solubility: < 200 mg/mL
[3]; water, 25 °C, water, thermodynamic from solid, Water, 10 vol, 25° C.
  solubility: < 100 mg/mL
[3]; water, 25 °C, water, thermodynamic from solid, Water, 50 vol, 25° C.
  solubility: < 20 mg/mL
[3]; water, 50 °C, water, thermodynamic from solid, Water, 5 vol, 50° C.
  solubility: < 200 mg/mL
[3]; water, 50 °C, water, thermodynamic from solid, Water, 10 vol, 50° C.
  solubility: < 100 mg/mL
[3]; water, 50 °C, water, thermodynamic from solid, Water, 50 vol, 50° C.
  solubility: < 20 mg/mL
[4]
  Melting point (onset): 85.3 °C
[5]; 25° C./97% RH
  XRPD after storage: XRPD - Unchanged
[5]; 25° C./97% RH, 7 days
  Purity after storage: Purity - 7 days: 99.5%, 14 days: 99.5%
[5]; 25° C./97% RH, 14 days
  Purity after storage: Purity - 7 days: 99.5%, 14 days: 99.5%
[5]; 40° C./75% RH, 7 days
  Purity after storage: Purity - 7 days: 99.5%, 14 days: 99.5% XRPD -
[5]; 40° C./75% RH, 14 days
  Purity after storage: Purity - 7 days: 99.5%, 14 days: 99.5% XRPD -
[5]; 14 days at 25° C./75% RH
  Stability after storage: stable
[5]; 14 days at 40° C./97% RH
  Stability after storage: stable
